{
  "source": "patent US12391698B2",
  "about": "“Substituted piperidines and piperazines and methods for the treatment of CNS disorders” (SUVEN LIFE SCIENCES LIMITED, priority 2022, dated 2025)",
  "key": {"[1]": {"target": "T1, recombinant human 5-HT2A receptor (Homo sapiens, UniProt P28223)", "T1 construct": "expressed in transfected cells", "T1 sequence (P28223 whole entry)": "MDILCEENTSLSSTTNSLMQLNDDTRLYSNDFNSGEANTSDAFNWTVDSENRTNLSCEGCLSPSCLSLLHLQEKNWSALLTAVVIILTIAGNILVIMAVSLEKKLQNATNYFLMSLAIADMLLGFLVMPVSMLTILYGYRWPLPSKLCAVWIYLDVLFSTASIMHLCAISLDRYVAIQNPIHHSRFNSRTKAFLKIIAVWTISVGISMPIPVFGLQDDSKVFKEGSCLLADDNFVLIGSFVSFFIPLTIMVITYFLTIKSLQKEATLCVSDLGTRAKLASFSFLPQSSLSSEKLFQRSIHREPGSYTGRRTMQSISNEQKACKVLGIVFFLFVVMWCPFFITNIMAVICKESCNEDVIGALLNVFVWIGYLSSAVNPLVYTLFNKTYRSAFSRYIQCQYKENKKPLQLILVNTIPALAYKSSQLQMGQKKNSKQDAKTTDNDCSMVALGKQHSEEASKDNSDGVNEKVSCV", "experiment": "Determination of Kb at 5-HT2A receptor, pCRE-Luc reporter gene assay in CHO cells", "format": "cell-based", "method": "A stable CHO cell line expressing recombinant human 5-HT2A receptor and pCRE-Luc reporter system was used for cell-based assay. The assay offers a non-radioactive based approach to determine binding of a compound to GPCRs. In this specific assay, the level of intracellular cAMP which is modulated by activation or inhibition of the receptor was measured. The recombinant cells harbor luciferase reporter gene under the control of cAMP response element.\nThe above cells were grown in 96 well clear bottom white plates in Hams F12 medium containing 10% fetal bovine serum (FBS). Prior to the addition of compounds or standard agonist, cells were serum starved overnight. Increasing concentrations of test compound were added along with 1 μM of serotonin in Opti-MEM medium to the cells. The incubation was continued at 37° C. in CO2 incubator for 4 hours. Medium was removed and cells were washed with phosphate buffered saline. The cells were lysed and luciferase activity was measured in a Luminometer. Luminescence units were plotted against the compound concentrations using GraphPad Prism software. EC50 values of the compounds were defined as the concentration required in reducing the luciferase activity by 50%. The Kb values were calculated by feeding the concentration of agonist used in the assay and its EC50 value in the same software."}, "[2]": {"tested_on": "Male Wistar rats", "experiment": "MK-801-induced amnesia in novel object recognition task (NORT)", "format": "in vivo, rat", "settings": "0.3 mg/kg, p.o., MK-801 0.03 mg/kg, i.p.", "method": "Male Wistar rats of 230-280 g body weight were used. Rats were weighed and randomized according to their body weights. On day 1, animals were habituated to the arenas for 45 min. On day 2, 30 min before the trial-1 animals were administered with vehicle (WFI) or test compound and 20 min before the trial-1 the animals were administered with MK-801 0.03 mg/kg, i.p. Trial-1 is familiarization task in the arena with two similar kind of silver color flasks of same dimensions for a period of 3 min. After an inter trial interval of 90 min animals were subjected to recognition task in the arena with one silver and one violet bottle for a period of 3 min. Time spent by the rats with either familiar or novel objects was noted and analyzed. MK-801-induced amnesia in novel object recognition task models cognitive deficits associated with schizophrenia."}},
  "note": "Counter-ions that a name gives are not always drawn.",
  "data": [
    {"smiles": "O=C1C[C@@H]2CCCN2C(=O)N1CCCCN1CCN(c2nsc3ccccc23)CC1", "note": "[Example 2, 2-[4-(4-Benzo[d]isothiazol-3-yl-piperazin-1-yl)-butyl]-tetrahydro-pyrrolo[1,2-c]pyrimidine-1,3-dione oxalate]", "values": [
      {"measurement": "agonist activity at human recombinant 5-HT2A receptor", "setting": "[1]; pCRE-Luc reporter gene assay", "value": "no detectable agonist activity"},
      {"measurement": "antagonistic activity at human recombinant 5-HT2A receptor", "setting": "[1]; pCRE-Luc reporter gene assay", "value": "antagonistic activity"},
      {"measurement": "Kb", "setting": "[1]; with 1 μM serotonin, luciferase readout", "value": 8, "unit": "nM"},
      {"measurement": "Inference, MK-801-induced amnesia in NORT", "setting": "[2]", "value": "Active"}
    ]}
  ]
}
